Where two headings read alike, the source gives them in different places.
Tests used:
[1] = Demeule et al., 2008; cited from earlier work
hLDLR [2] = biological target: T1, hLDLR (Homo sapiens, UniProt P01130); test: FACS: binding of bacterial viruses expressing peptides to CHO-hLDLR-GFP cells; design: expressed in transfected cells; details: peptide expressed by bacterial virus clone, vs control bacterial viruses, 20 min at 4° C.
Description: Evaluation by FACS of the interaction between CHO-hLDLR-GFP cells and a clone of bacterial viruses expressing peptide SEQ ID NO: 11 with affinity for hLDLR compared with control bacterial viruses not expressing peptides with affinity for this receptor.
(§1) Qualitative immunocytochemistry was supplemented with quantitative flow cytometry (FACS) with suspended cells (GFP cell line, CHO-hLDLR-GFP cell line, human fibroblasts, HUVEC). These cells were grown in culture medium, mechanically unbound and dissociated (without trypsin), centrifuged, resuspended and incubated in the presence of various bacterial virus clones and anti-LDLR antibody, for 20 min at 4° C. in order to avoid any process of endocytosis. After washings, the bacterial viruses bound to cells were visualised with anti-viral envelope protein antibody. FACS analyses were carried out with a FACSCanto system (Becton Dickinson) using BD FACSDiva software. The number of positive cells was standardised with 5,000 events for each test. The results were expressed in arbitrary units of fluorescence.
(§2) FIGS. 9, 10, 11 correspond to the results obtained for peptides SEQ ID NO: 11, SEQ ID NO: 12 and SEQ ID NO: 21 on cells of the CHO-hLDLR-GFP cell line (FIG. 9), human fibroblasts (FIG. 10) and HUVEC (FIG. 11).

hLDLR [3] = biological target: T1, hLDLR; test: FACS on HUVEC: competition between peptides expressed by bacterial viruses and natural ligand LDL; assay type: binding; design: endogenous in cells; host or cells: HUVEC (human umbilical vein endothelial cells), not genetically modified
Excerpt: Evaluation by FACS on HUVEC of competition between the peptides expressed by the bacterial viruses with affinity for LDLR and its natural ligand LDL.
I—Graph representing the percentage of shift of the fluorescence signal in zone Q2 of graphs A-H obtained by FACS. […] Adding LDL leads to an 85% loss of signal in Q2 in […], indicating competition between the bacterial virus corresponding to peptide sequence SEQ ID NO: 21 and LDL at the site where LDL binds to hLDLR. The equally strong signal in Q2 of the bacterial viruses that express peptide SEQ ID NO: 11 (shift greater than 70% compared to control bacterial viruses) is only slightly shifted (17%) by adding LDL.
First, it is shown that the binding rate of bacterial viruses expressing peptides with affinity for hLDLR (SEQ ID NO: 21 and SEQ ID NO: 11 are used here as examples) is proportional to the level of LDLR expression by HUVEC. FACS experiments carried out in the presence of LDL made it possible to show and quantify a strong shift (85%) of LDL by linear peptides (for example SEQ ID NO: 21), but a small shift (17%) by cyclic peptides (for example SEQ ID NO: 11).

[4] = In situ brain perfusion in mouse, transport across the BBB; assay type: in vivo; details: mouse, in vivo
Description: The in situ brain perfusion technique (in adult male OF1 mouse) is used here to select the best vectors and to provide proof of their mechanism of action for their passage in the brain across the BBB.
Radioactive peptides with high specific radioactivity (SRA, up to 100 Ci/mmol) are prepared by a strategy of acylation of the N-term amine function by tritiated propionic (or propanoic) anhydride or tritiated N-propionyl-succinimide (NPS).
The tritiation reaction of peptide vectors SEQ ID NO: 11 and SEQ ID NO: 48 in the N-term position by propionylation is carried out in DMF (1 mg peptide in 100 μl to 450 μl according to solubility) by adding 0.1 equivalent of tritiated NPS for 5 min at room temperature, then 0.9 equivalent of cold NPS (non-tritiated) for 1 h, and then a new equivalent of cold NPS for 5 h. The reaction medium is then left at 4° C. overnight and purified the following day by HPLC. The SRA for each tritiated peptide is between 5 Ci/mmol and 10 Ci/mmol (theoretically on the order of 7.7 Ci/mmol). The total quantity of radioactivity prepared by synthesis is between 600 μCi and 950 μCi.
The techniques briefly summarised below were developed to study the distribution in the brain of active substances and, in particular, the role of the BBB and, more particularly, of LDLR in the penetration of these molecules in the brain. In situ brain perfusion techniques are among the most technically demanding and the most difficult to perform in the mouse. However, in situ brain perfusion (like in vitro models) enables total control of the composition of the artificial perfusate in order to maintain the cells and vascularisation of the brain under normal physiological and anatomical conditions within the animal, without the disrupting factor of systemic distribution.
(§3) This strategy of in situ brain perfusion normally carried out in the rat was adapted for mouse (Dagenais et al., 2000, J Cereb Blood Flow Metab., 20(2), 381-6) in order to broaden its application for evaluating the parameters of transport kinetics at the BBB and the blood-retinal barrier, in transgenic and KO mutant mice for the receptors, enzymes or transporters of active substances. It involves catheterisation of a carotid artery in anaesthetised OF 1 mice and ligature of some branches of this carotid artery (external, thyroidal, occipital) in order to specifically perfuse the internal carotid and pterygopalatine arteries, which are used to evaluate the uptake in the brain of the vectors and conjugates. The catheter makes it possible to replace general circulation by infusion with a well-controlled perfusate (bicarbonate buffer, plasma or blood) by passing by the carotid. Oxygenated Krebs bicarbonate buffer is first used to evaluate the capacities of the vectors and conjugates to gain access to the brain. After catheterisation of the carotid, endogenous blood flow is stopped by sectioning the ventricles of the heart in order to avoid the mixture of buffer with blood and elevation in blood pressure. The duration of the fixed flow-rate perfusion is monitored. The buffer perfusion can be extended up to 20 min, or up to 1 h in the presence of oxygen transporters (washed erythrocytes) for studies of receptor-mediated transport (RMT).
The study of peptide vector SEQ ID NO: 11 made it possible to determine its brain transport or transfer coefficient (Kin). The duration of brain perfusion for these experiments is 5 min with a perfusate flow rate of 2 ml/min. Thus, the calculation of the Kin (volume of distribution over time of brain perfusion) of peptide vector SEQ ID NO: 11 gives a value of 3.5±0.2×10^−4 ml/s/g.

[5] = In situ perfusion in mouse, transport across the blood-retinal barrier; assay type: in vivo; details: mouse, in vivo
Excerpt: as §3
In addition, the Kin of these various peptides, across the blood-retinal barrier (BRB), were also determined. Kin of SEQ ID NO: 11=1.2±0.2×10^−4 ml/s/g Kin of SEQ ID NO: 48=2.4±0.3×10^−4 ml/s/g Kin of SEQ ID NO: 73=0.0±0.0×10^−4 ml/s/g Kin of SEQ ID NO: 72=11.5±3.3×10^−4 ml/s/g Kin of SEQ ID NO: 74=1.8±0.2×10^−4 ml/s/g

hLDLR [6] = biological target: T1, hLDLR; test: FACS: binding of bacterial viruses expressing peptides to HUVEC; design: endogenous in cells; host or cells: HUVEC (human umbilical vein endothelial cells), not genetically modified
Description: Evaluation by FACS of the interaction between HUVEC and two clones of bacterial viruses expressing peptides, one cyclic (SEQ ID NO: 11), the other linear (SEQ ID NO: 21), with affinity for hLDLR, compared with control bacterial viruses not expressing peptides with affinity for this receptor.
as §1, §2

hLDLR [7] = biological target: T1, hLDLR; test: FACS: binding of bacterial viruses expressing peptides to human fibroblasts; design: endogenous in cells; host or cells: HUVEC (human umbilical vein endothelial cells), not genetically modified; details: peptide expressed by bacterial virus clone, vs control bacterial viruses
Description: Evaluation by FACS of the interaction between human fibroblasts and a clone of bacterial viruses expressing peptide SEQ ID NO: 12 with affinity for hLDLR, compared with control bacterial viruses not expressing peptides with affinity for this receptor.
as §1, §2

hLDLR [8] = biological target: T1, hLDLR; test: Immunocytochemistry: bacterial viruses on CHO-GFP (control) and CHO-hLDLR-GFP cell lines; assay type: binding; design: expressed in transfected cells; details: CHO cell line expressing GFP alone; peptide expressed by bacterial virus clone
Excerpt: CHO cell lines stably expressing A—GFP alone (green), and B—hLDLR-GFP (green), and immunostaining with an anti-viral envelope protein antibody of a clone of bacterial viruses expressing a peptide (SEQ ID NO: 1) with affinity for hLDLR (red dots). Cell nuclei are stained with Hoechst (blue, A1 and B1). GFP fluorescence is visible in green (A2 and B2), that of the staining of the viral envelope of the bacterial virus by the viral anti-protein antibody is visible in red (A3 and B3) and the superimposing of red and green stains is visible in yellow/orange (A4 and B4).
The bacterial virus clones identified following the binding of the peptides, which they express and which bind to hLDLR-GFP expressed by the stable CHO-hLDLR-GFP cell line, were brought together with LDLR cells and, after intensive washing, were detected with an antibody directed against the viral envelope protein of the bacterial virus followed by a second antibody coupled with Alexa 594 (FIG. 7).

[9] = system: mouse brain vessel endothelial cells; test: Tail vein injection of bacterial viruses in C57BL6 mice, immunostaining of brain sections; assay type: in vivo; details: 15 min and 2 h post injection, peptide expressed by bacterial viruses
Description: Double immunofluorescent staining of frozen sections of C57BL6 mouse brain, 2 h after mouse tail vein injection of control bacterial viruses (A-B) and bacterial viruses expressing a peptide (SEQ ID NO: 1) with affinity for hLDLR and mLDLR (C-D). Brain vessels are stained with anti-mouse IgG, in green (A-C); bacterial viruses are stained with anti-viral envelope protein antibody, in red (B-D).
Bacterial viruses expressing peptides with affinity for hLDLR (SEQ ID NO: 1 is described here for example) and control bacterial viruses (not expressing peptide with affinity for hLDLR) were injected into the tail veins of C57BL6 mice anaesthetised with halothane. After 15 min and 2 h post injection, the mice were sacrificed and perfused with 0.9% NaCl. Brains, livers and kidneys were frozen in isopentane and frozen sections were prepared for double immunohistochemical staining to visualise blood vessels with anti-mouse IgG and anti-viral envelope protein antibody to visualise bacterial viruses bound to endothelial cells in vivo.

[10] = Pan et al., 2004; cited from earlier work

T1 sequence (P01130 22-860): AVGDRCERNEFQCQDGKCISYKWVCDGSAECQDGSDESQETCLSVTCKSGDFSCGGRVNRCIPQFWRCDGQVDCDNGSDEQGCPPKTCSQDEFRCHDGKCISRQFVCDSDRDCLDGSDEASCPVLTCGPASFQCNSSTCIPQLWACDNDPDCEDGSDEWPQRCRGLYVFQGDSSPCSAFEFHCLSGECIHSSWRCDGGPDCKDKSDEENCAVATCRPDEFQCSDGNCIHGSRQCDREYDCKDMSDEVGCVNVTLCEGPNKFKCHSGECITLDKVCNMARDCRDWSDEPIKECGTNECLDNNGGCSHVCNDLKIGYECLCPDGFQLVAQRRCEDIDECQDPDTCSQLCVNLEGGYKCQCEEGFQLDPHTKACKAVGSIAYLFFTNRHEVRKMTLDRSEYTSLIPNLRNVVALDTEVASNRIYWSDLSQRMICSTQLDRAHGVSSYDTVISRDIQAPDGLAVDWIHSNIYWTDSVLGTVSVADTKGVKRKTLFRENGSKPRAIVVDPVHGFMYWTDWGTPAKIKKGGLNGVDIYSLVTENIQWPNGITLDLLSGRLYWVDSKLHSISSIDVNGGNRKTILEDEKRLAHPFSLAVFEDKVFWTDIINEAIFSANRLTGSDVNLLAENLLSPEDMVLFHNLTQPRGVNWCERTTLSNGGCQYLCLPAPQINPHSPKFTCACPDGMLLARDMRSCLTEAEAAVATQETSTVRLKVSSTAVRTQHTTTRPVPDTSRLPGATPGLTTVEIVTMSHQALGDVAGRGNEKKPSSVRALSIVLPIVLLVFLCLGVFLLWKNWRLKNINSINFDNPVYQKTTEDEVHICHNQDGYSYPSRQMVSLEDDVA

Substance: transferrin: transferrin, ligand of TfR; literature Kin value
- Kin [1]: 0.0003 mL/s/g

Substance: DSGLCMPRLRGCDPR [SEQ ID NO: 11]
- shift of the signal in Q2 (FACS) (hLDLR [2]): significant shift
- effect of LDL on binding of peptides expressed by bacterial viruses (hLDLR [3]; FACS, LDL added): No effect
- loss/shift of signal in Q2 on adding LDL (hLDLR [3]; peptide expressed by bacterial viruses, in the presence of LDL): 17%
- Kin (brain transport or transfer coefficient) [4]: 3.5±0.2 ×10^−4 ml/s/g
- Kin across the blood-retinal barrier (BRB) [5]: 1.2±0.2 ×10^−4 ml/s/g
- shift of the signal in Q2 (FACS) (hLDLR [6]; peptide expressed by bacterial virus clone, vs control bacterial viruses): significant shift
- percentage of shift of the fluorescence signal in zone Q2 (hLDLR [6]; peptide expressed by bacterial viruses, without LDL): greater than 70%

Substance: MTVMPTGLWNPLIPS [SEQ ID NO: 12]
- shift of the signal in Q2 (FACS) (hLDLR [7]): significant shift

Substance: HLDCMPRGCFRN [SEQ ID NO: 1]
- binding of bacterial viruses to cells that do not express hLDLR (hLDLR [8]): do not bind
- binding to brain vessel wall endothelial cells in vivo [9]: bind to vessel wall endothelial cells

Substance: RAP protein: RAP protein; literature Kin value
- Kin [10]: 1e-05 mL/s/g
